Tests used:
[1] = wn = mass fraction of the nth substance listed; details: 101 kPa, Liquid; for viscosity: Concentric cylinders viscometry; for mass density: Vibrating tube method
[2] = refractive index (Na D-line) (dimensionless); wn = mass fraction of the nth substance listed; details: 101 kPa, Liquid, Standard Abbe refractometry

CC(O)CN (stereo not given) [1-amino-2-propanol] + O
Details | mass density, [1] [kg/m3] | refractive index, [2] | viscosity, [1] [mPa·s]
298.15 K, w1 = 0.05 | 998.574 | 1.33891 | 1.088
298.15 K, w1 = 0.1 | 999.182 | 1.34586 | 1.296
298.15 K, w1 = 0.15 | 999.932 | 1.35281 | 1.569
298.15 K, w1 = 0.2 | 1001.03 | 1.35955 | 1.944
298.15 K, w1 = 0.25 | 1002.46 | 1.36649 | 2.444
303.15 K, w1 = 0.05 | 997.087 | 1.33825 | 0.9733
303.15 K, w1 = 0.1 | 997.57 | 1.34506 | 1.148
303.15 K, w1 = 0.15 | 998.142 | 1.35201 | 1.372
303.15 K, w1 = 0.2 | 999.018 | 1.35875 | 1.678
303.15 K, w1 = 0.25 | 1000.2 | 1.3656 | 2.083
308.15 K, w1 = 0.05 | 995.386 | 1.33749 | 0.8761
308.15 K, w1 = 0.1 | 995.747 | 1.34432 | 1.027
308.15 K, w1 = 0.15 | 996.159 | 1.35092 | 1.215
308.15 K, w1 = 0.2 | 996.833 | 1.35767 | 1.468
308.15 K, w1 = 0.25 | 997.78 | 1.36461 | 1.799
313.15 K, w1 = 0.05 | 993.483 | 1.33668 | 0.7937
313.15 K, w1 = 0.1 | 993.738 | 1.34343 | 0.9275
313.15 K, w1 = 0.15 | 994.005 | 1.35012 | 1.084
313.15 K, w1 = 0.2 | 994.489 | 1.35672 | 1.295
313.15 K, w1 = 0.25 | 995.218 | 1.36347 | 1.574
318.15 K, w1 = 0.05 | 991.399 | 1.33578 | 0.7225
318.15 K, w1 = 0.1 | 991.552 | 1.34259 | 0.8362
318.15 K, w1 = 0.15 | 991.681 | 1.34908 | 0.9756
318.15 K, w1 = 0.2 | 991.989 | 1.35573 | 1.155
318.15 K, w1 = 0.25 | 992.514 | 1.36228 | 1.384
323.15 K, w1 = 0.05 | 989.143 | 1.33483 | 0.6617
323.15 K, w1 = 0.1 | 989.197 | 1.34154 | 0.7617
323.15 K, w1 = 0.15 | 989.197 | 1.34799 | 0.8864
323.15 K, w1 = 0.2 | 989.338 | 1.35454 | 1.039
323.15 K, w1 = 0.25 | 989.679 | 1.36109 | 1.231
328.15 K, w1 = 0.05 | 986.722 | 1.33384 | 0.6112
328.15 K, w1 = 0.1 | 986.682 | 1.3405 | 0.6988
328.15 K, w1 = 0.15 | 986.564 | 1.34705 | 0.8113
328.15 K, w1 = 0.2 | 986.546 | 1.3533 | 0.943
328.15 K, w1 = 0.25 | 986.711 | 1.35985 | 1.102
333.15 K, w1 = 0.05 | 984.143 | 1.3328 | 0.5696
333.15 K, w1 = 0.1 | 984.015 | 1.33936 | 0.647
333.15 K, w1 = 0.15 | 983.779 | 1.34581 | 0.75
333.15 K, w1 = 0.2 | 983.615 | 1.35211 | 0.8659
333.15 K, w1 = 0.25 | 983.616 | 1.35861 | 0.9934
338.15 K, w1 = 0.05 | 981.41 | 1.33173 | 0.5381
338.15 K, w1 = 0.1 | 981.198 | 1.33832 | 0.6053
338.15 K, w1 = 0.15 | 980.853 | 1.34462 | 0.6919
338.15 K, w1 = 0.2 | 980.549 | 1.35092 | 0.8
338.15 K, w1 = 0.25 | 980.398 | 1.35753 | 0.9015
343.15 K, w1 = 0.05 | 978.537 | 1.33057 | 0.5152
343.15 K, w1 = 0.1 | 978.237 | 1.33713 | 0.5701
343.15 K, w1 = 0.15 | 977.785 | 1.34343 | 0.6478
343.15 K, w1 = 0.2 | 977.354 | 1.34968 | 0.7408
343.15 K, w1 = 0.25 | 977.059 | 1.35614 | 0.8266

CC(O)CNCC(C)O (stereo not given) [N-(2-hydroxypropyl)-2-hydroxy-1-propanamine] + O
Details | mass density, [1] [kg/m3] | refractive index, [2] | viscosity, [1] [mPa·s]
298.15 K, w1 = 0.05 | 1000.6 | 1.34052 | 1.117
298.15 K, w1 = 0.1 | 1003.53 | 1.34766 | 1.394
298.15 K, w1 = 0.15 | 1006.99 | 1.35486 | 1.814
298.15 K, w1 = 0.2 | 1010.4 | 1.3621 | 2.288
298.15 K, w1 = 0.25 | 1014.1 | 1.36925 | 3.026
303.15 K, w1 = 0.05 | 999.133 | 1.33988 | 0.9968
303.15 K, w1 = 0.1 | 1001.97 | 1.34693 | 1.228
303.15 K, w1 = 0.15 | 1005.27 | 1.35421 | 1.569
303.15 K, w1 = 0.2 | 1008.5 | 1.3613 | 1.952
303.15 K, w1 = 0.25 | 1011.98 | 1.36822 | 2.539
308.15 K, w1 = 0.05 | 997.454 | 1.33919 | 0.8984
308.15 K, w1 = 0.1 | 1000.19 | 1.34623 | 1.093
308.15 K, w1 = 0.15 | 1003.35 | 1.35332 | 1.38
308.15 K, w1 = 0.2 | 1006.41 | 1.36036 | 1.695
308.15 K, w1 = 0.25 | 1009.69 | 1.36736 | 2.167
313.15 K, w1 = 0.05 | 995.576 | 1.33844 | 0.8189
313.15 K, w1 = 0.1 | 998.214 | 1.34533 | 0.9814
313.15 K, w1 = 0.15 | 1001.24 | 1.35237 | 1.224
313.15 K, w1 = 0.2 | 1004.14 | 1.35947 | 1.485
313.15 K, w1 = 0.25 | 1007.23 | 1.36641 | 1.871
318.15 K, w1 = 0.05 | 993.508 | 1.33755 | 0.7442
318.15 K, w1 = 0.1 | 996.055 | 1.3445 | 0.8856
318.15 K, w1 = 0.15 | 998.951 | 1.35149 | 1.095
318.15 K, w1 = 0.2 | 1001.71 | 1.35838 | 1.313
318.15 K, w1 = 0.25 | 1004.62 | 1.36537 | 1.633
323.15 K, w1 = 0.05 | 991.263 | 1.33675 | 0.6884
323.15 K, w1 = 0.1 | 993.722 | 1.34355 | 0.8047
323.15 K, w1 = 0.15 | 996.497 | 1.35044 | 0.9924
323.15 K, w1 = 0.2 | 999.106 | 1.35739 | 1.171
323.15 K, w1 = 0.25 | 1001.86 | 1.36423 | 1.438
328.15 K, w1 = 0.05 | 988.852 | 1.33566 | 0.6407
328.15 K, w1 = 0.1 | 991.224 | 1.34256 | 0.7357
328.15 K, w1 = 0.15 | 993.882 | 1.3494 | 0.9053
328.15 K, w1 = 0.2 | 996.358 | 1.35615 | 1.052
328.15 K, w1 = 0.25 | 998.953 | 1.36294 | 1.278
333.15 K, w1 = 0.05 | 986.277 | 1.33467 | 0.5833
333.15 K, w1 = 0.1 | 988.56 | 1.34147 | 0.6793
333.15 K, w1 = 0.15 | 991.114 | 1.34831 | 0.8324
333.15 K, w1 = 0.2 | 993.463 | 1.35501 | 0.9512
333.15 K, w1 = 0.25 | 995.91 | 1.36175 | 1.145
338.15 K, w1 = 0.05 | 983.349 | 1.33363 | 0.5507
338.15 K, w1 = 0.1 | 985.762 | 1.34037 | 0.6341
338.15 K, w1 = 0.15 | 988.199 | 1.34702 | 0.7693
338.15 K, w1 = 0.2 | 990.404 | 1.35377 | 0.8643
338.15 K, w1 = 0.25 | 992.735 | 1.36051 | 1.032
343.15 K, w1 = 0.05 | 980.387 | 1.33224 | 0.5267
343.15 K, w1 = 0.1 | 982.81 | 1.33899 | 0.6006
343.15 K, w1 = 0.15 | 985.138 | 1.34583 | 0.725
343.15 K, w1 = 0.2 | 987.241 | 1.35253 | 0.8146
343.15 K, w1 = 0.25 | 989.434 | 1.35922 | 0.9579

— the NIST ThermoML archive (doi:10.1021/je300938w)
